Test results reported in the supplement of paper PMC10307832.

Columns and labels:
Assay in all cases: relative viability (nuclei count vs DMSO), 5 days (fraction); higher = more cells survive
[1] = compound: CO[C@@H]1[C@H](N(C)C(=O)c2ccccc2)C[C@H]2O[C@]1(C)n1c3ccccc3c3c4c(c5c6ccccc6n2c5c31)C(=O)NC4 [Midostaurin] + CC(=O)c1c(C)c2cnc(Nc3ccc(N4CCNCC4)cn3)nc2n(C2CCCC2)c1=O [Palbociclib] (partner 0.5 µM)
Procedure, shortened: (§1)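 Values are medians from duplicate plates. Each reflects relative viability, defined as the nuclei count of treated wells over that of vehicle wells. Lung cancer cell lines in 1536-well plates were pin-tool dosed one day after seeding with one drug alone or with a fixed anchor-drug dose plus five library-drug doses (not always all listed) in √10 steps, then fixed, stained and imaged at 4× after 5 days.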

[2] = compound: COc1cc(-c2nn([C@H]3CC[C@H](N4CCN(C(C)=O)CC4)CC3)c3ncnc(N)c23)ccc1NC(=O)c1cc2ccccc2n1C + CC(=O)c1c(C)c2cnc(Nc3ccc(N4CCNCC4)cn3)nc2n(C2CCCC2)c1=O [Palbociclib] (partner 0.5 µM)
Procedure, shortened: as §1

[3] = compound: COc1cc(-c2nn([C@H]3CC[C@H](N4CCN(C(C)=O)CC4)CC3)c3ncnc(N)c23)ccc1NC(=O)c1cc2ccccc2n1C + CS(=O)(=O)N1CCN(Cc2cc3nc(-c4cccc5[nH]ncc45)nc(N4CCOCC4)c3s2)CC1 [Pictilisib] (partner 1 µM)
Procedure, shortened: as §1

[4] = compound: CO[C@@H]1[C@H](N(C)C(=O)c2ccccc2)C[C@H]2O[C@]1(C)n1c3ccccc3c3c4c(c5c6ccccc6n2c5c31)C(=O)NC4 [Midostaurin] + Cc1nc(Nc2ncc(C(=O)Nc3c(C)cccc3Cl)s2)cc(N2CCN(CCO)CC2)n1 [Dasatinib] (partner 0.075 µM)
Procedure, shortened: as §1

[5] = compound: COc1cc(-c2nn([C@H]3CC[C@H](N4CCN(C(C)=O)CC4)CC3)c3ncnc(N)c23)ccc1NC(=O)c1cc2ccccc2n1C + COc1cc2c(Oc3ccc(NC(=O)C4(C(=O)Nc5ccc(F)cc5)CC4)cc3F)ccnc2cc1OCCCN1CCOCC1 [Foretinib] (partner 0.25 µM)
Procedure, shortened: as §1

Cell Line | relative viability ([1]; first compound 0.01 µM) | relative viability ([1]; first compound 0.03162 µM) | relative viability ([1]; first compound 0.1 µM) | relative viability ([1]; first compound 0.3162 µM) | relative viability ([2]; first compound 0.0128 µM) | relative viability ([2]; first compound 0.04048 µM) | relative viability ([2]; first compound 0.128 µM) | relative viability ([2]; first compound 1.28 µM) | relative viability ([3]; first compound 0.0128 µM) | relative viability ([3]; first compound 0.04048 µM) | relative viability ([3]; first compound 0.128 µM) | relative viability ([3]; first compound 1.28 µM) | relative viability ([4]; first compound 0.01 µM) | relative viability ([4]; first compound 0.03162 µM) | relative viability ([4]; first compound 0.1 µM) | relative viability ([4]; first compound 0.3162 µM) | relative viability ([5]; first compound 0.0128 µM) | relative viability ([5]; first compound 0.04048 µM) | relative viability ([5]; first compound 0.128 µM) | relative viability ([5]; first compound 1.28 µM)
HCC-44 | 1.01 | 1.02 | 0.942 | 0.99 | 1.04 | 0.975 | 0.972 | 1.29 | 0.675 | 0.67 | 0.542 | 0.542 | – | – | – | – | – | – | – | –
HCC-827 | 0.423 | 0.521 | 0.503 | 0.506 | 0.492 | 0.455 | 0.484 | 0.218 | 1.1 | 1.22 | 0.902 | 0.783 | 0.417 | 0.441 | 0.386 | 0.341 | 0.998 | 0.943 | 1.02 | 0.756
NCI-H1623 | – | – | – | – | – | – | – | – | – | – | – | – | 0.53 | 0.594 | 0.507 | 0.652 | 0.855 | 0.696 | 0.763 | 0.595
NCI-H2347 | 0.442 | 0.449 | 0.395 | 0.404 | 0.461 | 0.43 | 0.392 | 0.416 | 0.754 | 0.579 | 0.772 | 0.414 | 0.328 | 0.305 | 0.281 | 0.327 | 0.788 | 0.781 | 0.864 | 0.834
PC-14 | 0.487 | 0.643 | 0.485 | 0.369 | 0.515 | 0.503 | 0.486 | 0.433 | 0.744 | 0.792 | 0.664 | 0.625 | 0.251 | 0.253 | 0.218 | 0.182 | 0.956 | 1.06 | 0.885 | 0.979
NCI-H1651 | 0.518 | 0.52 | 0.525 | 0.53 | 0.522 | 0.539 | 0.513 | 0.49 | 0.489 | 0.525 | 0.483 | 0.43 | 0.322 | 0.488 | 0.408 | 0.446 | 0.911 | 0.886 | 0.969 | 0.692
HARA | 0.316 | 0.283 | 0.278 | 0.242 | 0.268 | 0.241 | 0.246 | 0.185 | 0.454 | 0.395 | 0.349 | 0.362 | 0.262 | 0.22 | 0.269 | 0.283 | 1.07 | 0.846 | 0.687 | 0.332
NCI-H1650 | 0.297 | 0.409 | 0.343 | 0.522 | 0.342 | 0.409 | 0.306 | 0.268 | 0.548 | 0.651 | 0.513 | 0.547 | 0.336 | 0.34 | 0.254 | 0.254 | 1.07 | 1.45 | 1.14 | 0.911
NCI-H1395 | 0.626 | 0.753 | 0.639 | 0.703 | 0.656 | 0.647 | 0.589 | 0.497 | 0.578 | 0.711 | 0.512 | 0.486 | 0.435 | 0.38 | 0.404 | 0.403 | 0.975 | 0.95 | 0.9 | 0.72
LU99A | 0.386 | 0.513 | 0.371 | 0.386 | 0.419 | 0.435 | 0.389 | 0.377 | 0.357 | 0.385 | 0.391 | 0.326 | 0.434 | 0.549 | 0.541 | 0.348 | 0.96 | 0.895 | 0.857 | 0.821
NCI-H1355 | 0.409 | 0.429 | 0.443 | 0.468 | 0.448 | 0.402 | 0.416 | 0.415 | 0.584 | 0.295 | 0.412 | 0.406 | 0.796 | 0.777 | 0.743 | 0.818 | 1 | 0.958 | 0.988 | 0.883
HCC-78 | 0.536 | 0.474 | 0.474 | 0.469 | 0.479 | 0.433 | 0.465 | 0.381 | 0.23 | 0.181 | 0.21 | 0.196 | 0.375 | 0.371 | 0.373 | 0.219 | 0.544 | 0.733 | 0.467 | 0.376
NCI-H1563 | – | – | – | – | – | – | – | – | 0.682 | 0.641 | 0.656 | 0.606 | 0.402 | 0.469 | 0.43 | 0.465 | 0.913 | 0.997 | 0.936 | 0.685
HCC-15 | 0.806 | 0.788 | 0.771 | 0.73 | 0.555 | 0.663 | 0.839 | 0.705 | 0.854 | 0.369 | 0.657 | 0.647 | 0.735 | 0.655 | 0.657 | 0.635 | 1.13 | 1.09 | 0.94 | 0.877
EKVX | 0.443 | 0.45 | 0.362 | 0.401 | 0.383 | 0.47 | 0.357 | 0.271 | 0.458 | 0.475 | 0.401 | 0.245 | 0.696 | 0.598 | 0.468 | 0.456 | 0.881 | 0.755 | 0.744 | 0.575
NCI-H2087 | 0.213 | 0.232 | 0.268 | 0.27 | 0.244 | – | 0.237 | 0.222 | 1.06 | 0.399 | 0.842 | 0.753 | 1.03 | 0.757 | 0.917 | 0.777 | 1.25 | – | 1.11 | 0.948
